Key:
Assay type in all cases: in vivo
[1] = tested on: sedge, umbrella (small-flower umbrella sedge Cyperus difformis); experiment: Test B flooded paddy: sedge, umbrella; conditions: Flood; 250 g ai/ha; applied to paddy water at 2-leaf stage; visually evaluated after 13 to 15 days
Procedure, shortened: (§1)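 Plants were grown to the 2-leaf stage and pots flooded to 3 cm above soil. Compounds were applied directly into the paddy water, with depth kept for the test. After 13–15 days in greenhouse, response was rated visually against controls on a 0 (no effect) to 100 (complete control) scale.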

[2] = tested on: ducksalad (Heteranthera limosa); experiment: Test B flooded paddy: ducksalad; conditions: Flood; 250 g ai/ha; applied to paddy water at 2-leaf stage; visually evaluated after 13 to 15 days
Procedure, shortened: as §1

[3] = tested on: bermudagrass (Cynodon dactylon); experiment: Test C pre-/postemergence: bermudagrass
Procedure, shortened: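 Preemergence on seeds in loam/sand, postemergence on 2–18 cm (1–4-leaf) plants in peat-based medium; compounds in non-phytotoxic solvent with surfactant. After 13–15 days in greenhouse, visual rating versus controls, 0 (no effect) to 100 (complete control).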

[4] = tested on: lambsquarters (Chenopodium album); experiment: Test D pre-/postemergence: lambsquarters
From the text: (§2) Seeds of plant species selected from bluegrass (annual bluegrass, Poa annua), blackgrass (Alopecurus myosuroides), canarygrass (Phalaris minor), chickweed (common chickweed, Stellaria media), galium (catchweed bedstraw, Galium aparine), bromegrass, downy (downy bromegrass, Bromus tectorum), field poppy (Papaver rhoeas), field violet (Viola arvensis), foxtail, green (green foxtail, Setaria viridis), deadnettle (henbit deadnettle, Lamium amplexicaule), ryegrass, Italian (Italian ryegrass, Lolium multiflorum), kochia (Kochia scoparia), lambsquarters (Chenopodium album), oilseed rape (Brassica napus), pigweed (Amaranthus retroflexus), Russian thistle (Salsola iberica), chamomile (scentless chamomile, Matricaria inodora), speedwell (bird's-eye speedwell, Veronica persica), barley, spring (spring barley, Hordeum vulgare), wheat, spring (spring wheat, Triticum aestivum), buckwheat, wild (wild buckwheat, Polygonum convolvulus), mustard, wild (wild mustard, Sinapis arvensis), oat, wild (wild oat, Avena fatua), radish, wild (wild radish, Raphanus raphanistrum), windgrass (Apera spica-venti), barley, winter (winter barley, Hordeum vulgare), and wheat, winter (winter wheat, Triticum aestivum) were planted into a silt loam soil and treated preemergence with test chemicals formulated in a non-phytotoxic solvent mixture which included a surfactant. At the same time, these same crop and weed species were planted in pots containing the planting medium comprising spaghnum peat moss, vermiculite, wetting agent and starter nutrients and treated with postemergence applications of the test chemicals formulated in the same manner. Plants ranged in height from 2 to 18 cm (1- to 4-leaf stage).
(§3) Treated plants and controls were maintained in a controlled growth environment for 14 to 21 days after which time all species were compared to controls and visually evaluated. Plant response ratings, summarized in Table D, are based on a scale of 0 to 100 where 0 is no effect and 100 is complete control. A dash (-) response means no test result.

[5] = tested on: chamomile (scentless chamomile, Matricaria inodora); experiment: Test D pre-/postemergence: chamomile
From the text: as §2, §3

[6] = tested on: buckwheat, wild (wild buckwheat, Polygonum convolvulus); experiment: Test D pre-/postemergence: buckwheat, wild
From the text: as §2, §3

[7] = tested on: mustard, wild (wild mustard, Sinapis arvensis); experiment: Test D pre-/postemergence: mustard, wild
From the text: as §2, §3

[8] = tested on: wheat, winter (winter wheat, Triticum aestivum); experiment: Test D pre-/postemergence: wheat, winter
Procedure, shortened: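 Pre- and postemergence herbicide screen. Soil for pre: silt loam; post medium: peat moss, vermiculite, wetting agent, starter nutrients. Plant stage at post: 1- to 4-leaf. Readout: visual % control, 14–21 days.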

[9] = Postemergence, 31 g ai/ha, scale 0 to 100 (0 no effect, 100 complete control)
[10] = Postemergence, 62 g ai/ha, scale 0 to 100 (0 no effect, 100 complete control)
[11] = Postemergence, 250 g ai/ha, scale 0 to 100
[12] = Postemergence, 125 g ai/ha, scale 0 to 100, 0 no effect, 100 complete control
[13] = Postemergence, 250 g ai/ha, scale 0 to 100 (0 no effect, 100 complete control)
[14] = Postemergence, 16 g ai/ha, scale 0 to 100
[15] = Preemergence, 31 g ai/ha, scale of 0 to 100, 0 is no effect, 100 is complete control
[16] = Preemergence, 62 g ai/ha, scale of 0 to 100, 0 is no effect, 100 is complete control
[17] = Preemergence, 125 g ai/ha, scale 0 to 100, 0 no effect, 100 complete control
[18] = Preemergence, 250 g ai/ha, scale 0 to 100, 0 no effect, 100 complete control
[19] = Postemergence, 8 g ai/ha, scale 0 to 100
[20] = Preemergence, 16 g ai/ha, scale 0 to 100 (0 no effect, 100 complete control)
[21] = Preemergence, 31 g ai/ha, scale 0 to 100 (0 no effect, 100 complete control)
[22] = Preemergence, 62 g ai/ha, scale 0 to 100
[23] = Preemergence, 125 g ai/ha, scale 0 to 100

Cc1nn(-c2ccnc(C(F)(F)F)c2)nc1Cc1ccnc(C(F)(F)F)c1 [Compound 137]
Plant response rating, Sedge, Umbrella (0 to 100 scale, 0 is no effect, 100 is complete control) [1]: 70
Plant response rating, Ducksalad (0 to 100 scale, 0 is no effect, 100 is complete control) [2]: 50
Plant response rating, Bermudagrass [3, 9]: 30
Plant response rating, Bermudagrass [3, 10]: 30
Plant response rating, Bermudagrass [3, 11]: 45
Plant response rating: Lambsquarters [4, 9]: 75
Plant response rating: Lambsquarters [4, 10]: 80
Plant response rating: Lambsquarters [4, 12]: 95
Plant response rating: Lambsquarters [4, 13]: 95
Plant response rating, Lambsquarters [4, 14]: 40
Plant response rating: Chamomile [5, 9]: 10
Plant response rating: Chamomile [5, 10]: 15
Plant response rating: Chamomile [5, 12]: 20
Plant response rating: Chamomile [5, 13]: 40
Plant response rating, Chamomile [5, 14]: 0
Plant response rating: Buckwheat, Wild [6, 9]: 30
Plant response rating: Buckwheat, Wild [6, 10]: 65
Plant response rating: Buckwheat, Wild [6, 12]: 65
Plant response rating: Buckwheat, Wild [6, 13]: 80
Plant response rating, Buckwheat, Wild [6, 14]: 30
Plant response rating: Mustard, Wild [7, 9]: 60
Plant response rating: Mustard, Wild [7, 10]: 80
Plant response rating: Mustard, Wild [7, 12]: 95
Plant response rating: Mustard, Wild [7, 13]: 100
Plant response rating, Mustard, Wild [7, 14]: 50
Plant response rating: Wheat, Winter [8, 9]: 5
Plant response rating: Wheat, Winter [8, 10]: 10
Plant response rating: Wheat, Winter [8, 12]: 15
Plant response rating: Wheat, Winter [8, 13]: 20
Plant response rating, Wheat, Winter [8, 14]: 5

Cc1nn(-c2ccc(F)c(F)c2)nc1Oc1ccnc(C(F)(F)F)c1 [Compound 145]
Plant response rating, Sedge, Umbrella (0 to 100 scale, 0 is no effect, 100 is complete control) [1]: 85
Plant response rating, Ducksalad (0 to 100 scale, 0 is no effect, 100 is complete control) [2]: 60
Plant response rating, Bermudagrass [3, 9]: 10
Plant response rating, Bermudagrass [3, 10]: 40
Plant response rating, Bermudagrass [3, 12]: 75
Plant response rating, Bermudagrass [3, 11]: 90
Plant response rating, Bermudagrass [3, 15]: 98
Plant response rating, Bermudagrass [3, 16]: 98
Plant response rating, Bermudagrass [3, 17]: 98
Plant response rating, Bermudagrass [3, 18]: 98
Plant response rating: Lambsquarters [4, 9]: 90
Plant response rating: Lambsquarters [4, 10]: 100
Plant response rating: Lambsquarters [4, 12]: 100
Plant response rating, Lambsquarters [4, 19]: 10
Plant response rating, Lambsquarters [4, 14]: 25
Plant response rating: Chamomile [5, 9]: 10
Plant response rating: Chamomile [5, 10]: 10
Plant response rating: Chamomile [5, 12]: 30
Plant response rating, Chamomile [5, 19]: 0
Plant response rating, Chamomile [5, 14]: 0
Plant response rating: Buckwheat, Wild [6, 9]: 35
Plant response rating: Buckwheat, Wild [6, 10]: 45
Plant response rating: Buckwheat, Wild [6, 12]: 85
Plant response rating, Buckwheat, Wild [6, 19]: 15
Plant response rating, Buckwheat, Wild [6, 14]: 30
Plant response rating: Mustard, Wild [7, 9]: 75
Plant response rating: Mustard, Wild [7, 10]: 90
Plant response rating: Mustard, Wild [7, 12]: 100
Plant response rating, Mustard, Wild [7, 19]: 25
Plant response rating, Mustard, Wild [7, 14]: 70
Plant response rating: Wheat, Winter [8, 9]: 10
Plant response rating: Wheat, Winter [8, 10]: 10
Plant response rating: Wheat, Winter [8, 12]: 10
Plant response rating, Wheat, Winter [8, 19]: 5
Plant response rating, Wheat, Winter [8, 14]: 5

Cc1nn(-c2ccc(F)c(C(F)(F)F)c2)nc1Oc1ccnc(C(F)(F)F)c1 [Compound 147]
Plant response rating, Sedge, Umbrella (0 to 100 scale, 0 is no effect, 100 is complete control) [1]: 80
Plant response rating, Ducksalad (0 to 100 scale, 0 is no effect, 100 is complete control) [2]: 40
Plant response rating, Bermudagrass [3, 15]: 100
Plant response rating, Bermudagrass [3, 16]: 100
Plant response rating, Bermudagrass [3, 17]: 100
Plant response rating, Bermudagrass [3, 18]: 100
Plant response rating: Lambsquarters [4, 9]: 75
Plant response rating: Lambsquarters [4, 10]: 90
Plant response rating: Lambsquarters [4, 12]: 95
Plant response rating, Lambsquarters [4, 14]: 75
Plant response rating, Lambsquarters [4, 20]: 5
Plant response rating, Lambsquarters [4, 21]: 50
Plant response rating, Lambsquarters [4, 22]: 80
Plant response rating, Lambsquarters [4, 23]: 85
Plant response rating: Chamomile [5, 9]: 60
Plant response rating: Chamomile [5, 10]: 75
Plant response rating: Chamomile [5, 12]: 80
Plant response rating, Chamomile [5, 14]: 45
Plant response rating, Chamomile [5, 20]: 25
Plant response rating, Chamomile [5, 21]: 15
Plant response rating, Chamomile [5, 22]: 90
Plant response rating, Chamomile [5, 23]: 95
Plant response rating: Buckwheat, Wild [6, 9]: 50
Plant response rating: Buckwheat, Wild [6, 10]: 65
Plant response rating: Buckwheat, Wild [6, 12]: 70
Plant response rating, Buckwheat, Wild [6, 14]: 45
Plant response rating, Buckwheat, Wild [6, 20]: 15
Plant response rating, Buckwheat, Wild [6, 21]: 10
Plant response rating, Buckwheat, Wild [6, 22]: 30
Plant response rating, Buckwheat, Wild [6, 23]: 100
Plant response rating: Mustard, Wild [7, 9]: 100
Plant response rating: Mustard, Wild [7, 10]: 100
Plant response rating: Mustard, Wild [7, 12]: 100
Plant response rating, Mustard, Wild [7, 14]: 95
Plant response rating, Mustard, Wild [7, 20]: 55
Plant response rating, Mustard, Wild [7, 21]: 60
Plant response rating, Mustard, Wild [7, 22]: 100
Plant response rating, Mustard, Wild [7, 23]: 95
Plant response rating: Wheat, Winter [8, 9]: 15
Plant response rating: Wheat, Winter [8, 10]: 15
Plant response rating: Wheat, Winter [8, 12]: 20
Plant response rating, Wheat, Winter [8, 14]: 10
Plant response rating, Wheat, Winter [8, 20]: 0
Plant response rating, Wheat, Winter [8, 21]: 0
Plant response rating, Wheat, Winter [8, 22]: 0
Plant response rating, Wheat, Winter [8, 23]: 5
